Measured values reported in patent US10285794B2, “Hernia repair device and methods” (priority 2016, dated 2019).

Key:
[1] = tested on: myofibroblast (scar cell) formation; assay: TGFβ-induced myofibroblast formation (expression of αSMA, calponin and collagen); assay type: cell-based; details: hallmarks of myofibroblasts
Text: Therapeutic options to treat excessive scarring are limited and most are not proven to be effective. Salinomycin is a novel small molecule that blocks myofibroblast (scar cell) formation.

[2] = tested on: myofibroblast function (cellular contraction); assay type: cell-based
Text: These novel studies highlight the potential of salinomycin to serve as the basis for new anti-scarring agents.

[3] = tested on: human mesenchymal stem cells, human fibroblasts and fibroblasts from mouse, cat and pig; assay: cell culture studies of myofibroblast formation and function; assay type: cell-based
[4] = tested on: peri-implant capsular scarring; assay: silicone discs impregnated with salinomycin placed submuscular in mice, Masson's trichrome staining; assay type: in vivo, mouse
Text: Salinomycin can also be used effectively as a small molecule coating on silicone or temporary dressings such as PermeaDerm. […] In this study, silicone discs were impregnated with salinomycin or a control solvent and placed submuscular in mice. Surrounding tissue was harvested at 16 weeks and tissue sections were stained with Masson's trichrome.

[5] = rabbit study with cutaneous injection (toxicity, irritation, skin sensitization); assay type: in vivo
[6] = tested on: Gram-positive bacteria, including MRSA, MRSE and Mycobacterium tuberculosis; details: cited from earlier work
fungi such as Candida = details: cited from earlier work
Gram-negative bacteria = details: cited from earlier work

CC[C@@H](C(=O)[C@@H](C)[C@@H](O)[C@H](C)[C@@H]1O[C@@H]([C@@H](CC)C(=O)O)CC[C@@H]1C)[C@H]1O[C@]2(C=C[C@@H](O)[C@]3(CC[C@@](C)([C@H]4CC[C@](O)(CC)[C@H](C)O4)O3)O2)[C@H](C)C[C@@H]1C [Salinomycin]
ability of TGFβ to induce expression of αSMA, calponin and collagen [1]: potently blocks | myofibroblast function (cellular contraction) [2]: effectively blocks | viability [2]: without affecting viability | doses that block myofibroblast formation and function [3]: 50 to 200 nM | peri-implant capsular scarring ([4]; silicone implants impregnated with 1 micromolar coating solution, mouse): dramatically reduce | scar formation (capsule thickness) ([4]; submuscular silicone discs in mice, tissue harvested at 16 weeks, Masson's trichrome): significantly reduced scar formation | irritation ([5]; in vivo): non-irritating | reactivity (signs of erythema or edema) ([5]; in vivo): non-reactive | skin sensitization ([5]; in vivo): do not cause skin sensitization | toxicity ([5]; low doses required for anti-scarring activity, cutaneous injection): non toxic | antimicrobial activity against Gram-positive bacteria [6]: high antimicrobial activity | activity against fungi (fungi such as Candida): inactive | activity against Gram-negative bacteria (Gram-negative bacteria): inactive
